# Data taken from US20130296311A1, “INHIBITORS OF HCV NS5A” (PRESIDIO PHARMACEUTICALS, INC., priority 2010, published 2013).
# Test system: HCV 1b_Huh-Luc/Neo-ET cell line persistently expressing a bicistronic genotype 1b replicon in Huh 7 cells
# Experiment: HCV replicon assay (luciferase readout, 72 h)
# Assay type: cell-based, HCV genotype 1b
# Settings: Hepatitis C virus, Huh-7, 72 h, read-out: Inhibition of HCV
# Method in brief: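 EC50 values come from a four-parameter fit of luciferase signal as % of untreated control, repeated across several determinations. The signal is from the HCV 1b_Huh-Luc/Neo-ET replicon line, dosed in triplicate one day post-plating and incubated 72 h before Bright-Glo readout.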
row,Structure (SMILES),EC50
1,COC(=O)N[C@@H](C(=O)N1CCC[C@H]1c1nc2ccc(C#Cc3ccc4nc([C@@H]5CCCN5C(=O)[C@H](NC(=O)OC)C(C)C)[nH]c4c3)cc2[nH]1)C(C)C [Compound 853],< 1 nM

# Same assay, conditions: Hepatitis C virus, Huh-7, 72 h, read-out: Inhibition of HCV genotype 1b
row,Structure (SMILES),EC50
1,COC(=O)N[C@@H](C(=O)N1CCC[C@H]1c1ncc(-c2ccc(C#Cc3ccc(-c4cnc([C@@H]5CCCN5C(=O)[C@H](NC(=O)N5CCN(C)CC5)c5ccccc5)[nH]4)cc3)cc2)[nH]1)c1ccccc1 [Compound 240],< 1 nM
2,COC(=O)N[C@H](C(=O)N1CCC[C@H]1c1ncc(-c2ccc(C#Cc3ccc(-c4cnc([C@@H]5CCCN5C(=O)[C@@H](NC5CCOCC5)C(C)C)[nH]4)cc3)cc2)[nH]1)C(C)C [Compound 1001],1 to 9.9 nM
3,COC(=O)N[C@H](C(=O)N1CCC[C@H]1c1ncc(-c2cccc3c(C#Cc4ccc5nc([C@@H]6CCCN6C(=O)[C@@H](NC(=O)OC)C(C)C)[nH]c5c4)cccc23)[nH]1)C(C)C [Compound 1112],< 1 nM
4,O=C(N[C@@H](C(=O)N1CCC[C@H]1c1ncc(-c2ccc(C#Cc3ccc(-c4cnc([C@@H]5CCCN5C(=O)[C@@H](c5ccccc5)N5CCCC5)[nH]4)cc3)cc2)[nH]1)c1ccccc1)C1CC1 [Compound 217],< 1 nM
5,COC(=O)N[C@@H](C(=O)N1CCC[C@H]1c1ncc(-c2ccc(C#Cc3ccc(-c4cnc([C@@H]5CCCN5C(=O)[C@H](NC(=O)[C@H]5CCCO5)c5ccccc5)[nH]4)cc3)cc2)[nH]1)c1ccccc1 [Compound 201],< 1 nM
6,CC(C)[C@H](NC(=O)N1CCN(C)CC1)C(=O)N1CCC[C@H]1c1ncc(-c2ccc(C#Cc3ccc(-c4cnc([C@@H]5CCCN5C(=O)[C@@H](NC(=O)N5CCN(C)CC5)C(C)C)[nH]4)cc3)cc2)[nH]1 [Compound 287],> 1000 nM
7,COC(=O)N[C@H](C(=O)N1CCC[C@H]1c1ncc(-c2ccc(C#Cc3ccc4nc([C@@H]5CCCN5C(=O)[C@@H](NC(=O)OC)[C@@H](C)OC)[nH]c4c3)cc2)[nH]1)[C@@H](C)OC [Compound 862],< 1 nM
8,COC(=O)N[C@@H](C(=O)N1CCC[C@H]1c1ncc(-c2ccc(C#Cc3ccc(-c4cnc([C@@H]5CCCN5C(=O)C5(c6ccccc6)CC5)[nH]4)cc3)cc2)[nH]1)c1ccccc1 [Compound 257],< 1 nM
9,C[C@@H](NC(=O)C1CC1)C(=O)N1CCC[C@H]1c1ncc(-c2ccc(C#Cc3ccc(-c4cnc([C@@H]5CCCN5C(=O)[C@@H](C)NC(=O)C5CC5)[nH]4)cc3)cc2)[nH]1 [Compound 154],1 to 9.9 nM
10,COC(=O)N[C@@H](C(=O)N[C@H](c1ncc(-c2ccc(C#Cc3ccc(-c4cnc([C@@H]5CCCN5C(=O)[C@H](NC(=O)OC)c5ccccc5)[nH]4)cc3)cc2)[nH]1)C(C)C)c1ccccc1 [Compound 282],< 1 nM
11,COC[C@H]1CCCN1C(=O)N[C@@H](C(=O)N1CCC[C@H]1c1ncc(-c2ccc(C#Cc3ccc(-c4cnc([C@@H]5CCCN5C(=O)[C@H](NC(=O)OC)c5ccccc5)[nH]4)cc3)cc2)[nH]1)c1ccccc1 [Compound 259],< 1 nM
12,COC(=O)N[C@H](C(=O)N[C@@H](C)c1ncc(-c2ccc(C#Cc3ccc(-c4cnc([C@H](C)NC(=O)[C@@H](NC(=O)OC)[C@@H](C)OC)[nH]4)cc3)cc2)[nH]1)[C@@H](C)OC [Compound 952],1 to 9.9 nM
13,COC(=O)N[C@H](C(=O)N1CCC[C@H]1c1nc2ccc(C#Cc3ccc(-c4ccc5nc([C@@H]6CCCN6C(=O)[C@@H](NC(=O)OC)C(C)C)[nH]c5c4)nc3)cc2[nH]1)C(C)C [compound 1083],< 1 nM
14,COC(=O)N[C@H](C(=O)N1CCC[C@H]1c1nc2c([nH]1)-c1ccc(C#Cc3ccc(-c4cnc([C@@H]5CCCN5C(=O)[C@H](NC(=O)OC)c5ccccc5)[nH]4)cc3F)cc1CC2)C(C)C [Compound 1098],< 1 nM
15,CC(C)[C@@H](NC(=O)N1CCC(O)CC1)C(=O)N1CCC[C@H]1c1ncc(-c2ccc(C#Cc3ccc(-c4cnc([C@@H]5CCCN5C(=O)[C@H](NC(=O)N5CCC(O)CC5)C(C)C)[nH]4)cc3)cc2)[nH]1 [Compound 959],< 1 nM
16,COC(=O)N[C@@H](Cc1cnc[nH]1)C(=O)N1CCC[C@H]1c1ncc(-c2ccc(C#Cc3ccc4nc([C@@H]5CCCN5C(=O)[C@H](Cc5cnc[nH]5)NC(=O)OC)[nH]c4c3)cc2)[nH]1 [Compound 1048],1 to 9.9 nM
17,COC(=O)N[C@H](C(=O)N1CCC[C@H]1c1ncc(-c2ccc(C#Cc3ccc4nc([C@@H]5CCCN5C(=O)[C@@H](NC(=O)OC)C5CCCC5)[nH]c4c3)cc2)[nH]1)C1CCCC1 [Compound 1025],< 1 nM
18,C[C@@H](c1ncc(-c2ccc(C#Cc3ccc(-c4cnc([C@@H]5CCCN5C(=O)[C@H](NC(=O)OC(C)(C)C)c5ccccc5)[nH]4)cc3)cc2)[nH]1)N(C)C(=O)[C@H](NC(=O)OC(C)(C)C)c1ccccc1 [Compound 265],< 1 nM
19,CN(C)[C@@H](C(=O)N1CCC[C@H]1c1ncc(-c2ccc(C#Cc3cnc([C@@H]4CCCN4C(=O)[C@H](NC(=O)C4CC4)c4ccccc4)[nH]3)cc2)[nH]1)c1ccccc1 [Compound 131],< 1 nM
20,COC[C@H](NC(=O)OC)C(=O)N1CCC[C@H]1c1ncc(-c2ccc(C#Cc3ccc4nc([C@@H]5CCCN5C(=O)[C@H](COC)NC(=O)OC)[nH]c4c3)cc2)[nH]1 [Compound 1037],< 1 nM
21,COC(=O)N[C@H](Cc1ccccc1)C(=O)N1CCC[C@H]1c1ncc(-c2ccc(C#Cc3ccc(-c4cnc([C@@H]5CCCN5C(=O)[C@H](NC(=O)OC)c5ccccc5)[nH]4)cc3)cc2)[nH]1 [Compound 180],< 1 nM
22,CN(C)[C@@H](C(=O)N1CCC[C@H]1c1ncc(C#Cc2ccc(C#Cc3cnc([C@@H]4CCCN4C(=O)[C@@H](c4ccccc4)N(C)C)[nH]3)cc2)[nH]1)c1ccccc1 [Compound 305],< 1 nM
23,COC(=O)N[C@@H](CCC(=O)O)C(=O)N1CCC[C@H]1c1ncc(-c2ccc(C#Cc3ccc4nc([C@@H]5CCCN5C(=O)[C@H](CCC(=O)O)NC(=O)OC)[nH]c4c3)cc2)[nH]1 [Compound 1047],10 to 999 nM
24,CC(C)(C)OC(=O)N[C@@H](C(=O)N1CCC[C@H]1c1ncc(C#Cc2ccc(-c3ccc(-c4cnc([C@@H]5CCCN5C(=O)[C@H](NC(=O)OC(C)(C)C)c5ccccc5)[nH]4)cc3)cc2)[nH]1)c1ccccc1 [Compound 757],< 1 nM

# Same assay, conditions: Hepatitis C virus, Huh-7, read-out: Inhibition of HCV genotype 1b
row,Structure (SMILES),EC50
1,COC(=O)N[C@H](C(=O)N1CCC[C@H]1c1nc(C#N)c(C#Cc2ccc3cc(-c4cnc([C@@H]5CCCN5C(=O)[C@@H](NC(=O)OC)[C@@H](C)OC)[nH]4)ccc3c2)[nH]1)C(C)C [Compound 1268],< 1 nM
2,COC(=O)N[C@H](C(=O)N1CCN(C(=O)OC)C[C@H]1c1ncc(-c2ccc(C#Cc3ccc(-c4cnc([C@@H]5CCCN5C(=O)[C@H](NC(=O)OC)c5ccccc5)[nH]4)cc3)cc2)[nH]1)C(C)C [Compound 1206],< 1 nM
3,COC(=O)N[C@@H](C(=O)N1CCC[C@H]1c1ncc(-c2ccc(C#Cc3ccc(-c4cnc([C@@H]5CCCN5C(=O)[C@H](NC(=O)OC)c5ccccc5)[nH]4)cc3C#N)cc2)[nH]1)c1ccccc1 [Compound 1203],< 1 nM
4,COC(=O)N[C@H](C(=O)N1CCC[C@H]1c1ncc(-c2ccc3cc(C#Cc4[nH]c([C@@H]5CCCN5C(=O)[C@@H](NC(=O)OC)C(C)C)nc4C(=O)O)ccc3c2)[nH]1)C(C)C [Compound 1267],< 1 nM
5,CC[C@H](C)[C@H](NC(=O)OC)C(=O)N1CCC[C@H]1c1nc(C)c(C#Cc2ccc3cc(-c4cnc([C@@H]5CCCN5C(=O)[C@@H](NC(=O)OC)[C@@H](C)OC)[nH]4)ccc3c2)[nH]1 [Compound 1265],< 1 nM
